Earlier results as cited in patent US20060078615A1, “Bilayer tablet of telmisartan and simvastatin” (Boehringer Ingelheim International GmbH, priority 2004, published 2006).

Details: physiological pH range of the gastrointestinal tract, pH 1 to 7; free acid form

- solubility in aqueous systems: very poor solubility
Structure (SMILES): CCCc1nc2c(C)cc(-c3nc4ccccc4n3C)cc2n1Cc1ccc(-c2ccccc2C(=O)O)cc1 [Telmisartan, 4′-[2-n-propyl-4-methyl-6-(1-methylbenzimidazol-2-yl)benzimidazol-1-ylmethyl]biphenyl-2-carboxylic acid]
